Patent US4720543A, “1a-7-substituted derivatives of mitomycin and uses thereof” (priority 1985, dated 1988)

Legend:
Klebsiella Pneumonia = experiment: antibiotic activity, bacterial growth inhibition in culture; format: cell-based
Procedure: (§1) Bacteria were grown in a standard growth culture at pH 7.2. After the cultures were incubated at 37° C. overnight and diluted into fresh medium, controls and the test antibiotics dissolved in 0.3% hydroxy propylcellulose (HPC) were added at various concentrations and then reincubated overnight. The measure of antibiotic activity was determined by the amount of bacterial growth inhibition as shown by measurement of the optical density at 660 nm.

Listeria Sp. = experiment: as above; format: cell-based
Procedure: as §1

Pseudomonas Sp. = experiment: as above; format: cell-based
Procedure: as §1

Staphylococcus Sp. = experiment: as above; format: cell-based
Procedure: as §1

W3100 (E. coli) = experiment: as above; format: cell-based
Procedure: as §1

WP2s (E. coli) = experiment: as above; format: cell-based
Procedure: as §1

P388 leukemia = experiment: murine P388 leukemia antitumor activity; format: in vivo; details: approximate LD10 dose (M-TAG 250 mg/kg; mitomycin C 4 mg/kg), day one
Procedure: The murine P388 leukemia system, maintained intraperitoneally in female DBA/2 mice, was used to evaluate antitumor activity.
The P388 antileukemic activity of the test compound (M-TAG) was assessed by mean survival days, percentage increased life span or %ILS, and number of survivors after 45 days. The %ILS was calculated as follows:
%ILS=(T-C)/C×100 where T is the mean survival days of the treated mice and C is the mean survival days of the untreated mice

Ehrlich ascites = experiment: murine Ehrlich ascites antitumor activity; format: in vivo
Procedure: The antitumor activity of M-TAG for the murine Ehrlich ascities tumor was also determined. Ehrlich ascites was maintained i.p. in female BALB/C mice. For antitumor studies, 1×10^7 Ehrlich ascites cells (in 0.10 ml) were implanted i.p. in male BD2F1 mice. Drug was administered i.p. (single LD10 dose) one day after tumor implantation.

[1] = tested on: peripheral leukocyte (WBC); experiment: effects on peripheral leukocyte (WBC) count; format: in vivo, mice
Procedure: Comparative studies were performed with M-TAG and mitomycin C. Drug was dissolved in absolute ethanol, and then adjusted to a final concentration of 8% ethanol-92% sterile water. Blood samples obtained were diluted in 9.98 ml of Isoton (a neutral isotonic buffer solution) and counted in a Coulter counter after lysis with Zapoglobin (an enzyme solution which lyses red blood cells but not white blood cells). WBC counts are expressed as a percentage of values from control mice receiving drug vehicle only.

in vitro = details: human, bone marrow cells
Procedure: The human bone marrow CFU-C assay measures human bone marrow cells committed to granulocyte-macrophage differentiation. This in vitro assay serves as a model for predicting the relative toxicity of an experimental drug on the granulocytic series of the bone marrow. […] Both drugs were dissolved in 0.5% DMSO, and nucleated human bone marrow cells were exposed in vitro (for 90 minutes at 37° C.) to varying concentrations of each drug. The cells were then plated in triplicate in 3% agar for the CFU-C assay, using GCT, (Giant Cell Tumor) extract (Gibco, Grand Island, N.Y.) as colony-stimulating factor.

bone marrow = details: mice, rats, cats, dogs, and rhesus monkeys; cited from earlier work
B16 melanoma = experiment: murine B16 melanoma antitumor activity; details: M-TAG 250 mg/kg or mitomycin C 4 mg/kg, i.p. day 1
Text: Activity against the murine B16 melanoma is currently being determined.

[2] = toxic single doses in normal CD2F1 mice
Procedure: Drug was administered intraperitoneally (i.p.) in a volume of 0.1 ml per 10 grams body weight.

[3] = Escherichia coli, 0.04 mcg/ml, 37° C. overnight, read-out: amount of bacterial growth inhibition (first figure)
[4] = Escherichia coli, 0.4 mcg/ml, 37° C. overnight, read-out: amount of bacterial growth inhibition (first figure)
[5] = Escherichia coli, 4.0 mcg/ml, 37° C. overnight, read-out: amount of bacterial growth inhibition (first figure)
[6] = Escherichia coli, 40 mcg/ml, 37° C. overnight, read-out: amount of bacterial growth inhibition (first figure)
[7] = Escherichia coli, 400 mcg/ml, 37° C. overnight, read-out: amount of bacterial growth inhibition (first figure)

## CO[C@@]12[C@H](COC(N)=O)C3=C(C(=O)C(C)=C(N)C3=O)N1C[C@@H]1N[C@@H]12 [Mitomycin C, mitomycin C, reference compound]
Klebsiella Pneumonia; 0.04 mcg/ml
  optical density at 660 nm (figure in parentheses): 0.52
Klebsiella Pneumonia; 0.4 mcg/ml
  optical density at 660 nm (figure in parentheses): 0.086
Klebsiella Pneumonia; 4.0 mcg/ml
  optical density at 660 nm (figure in parentheses): 0.06
Klebsiella Pneumonia; 400 mcg/ml
  optical density at 660 nm (figure in parentheses): 0.13
Klebsiella Pneumonia; Klebsiella pneumoniae, 0.04 mcg/ml, 37° C. overnight, read-out: amount of bacterial growth inhibition (first figure)
  inhibition at 0.04 µg/mL: 30%
Klebsiella Pneumonia; Klebsiella pneumoniae, 0.4 mcg/ml, 37° C. overnight, read-out: amount of bacterial growth inhibition (first figure)
  inhibition at 0.4 µg/mL: 82%
Klebsiella Pneumonia; Klebsiella pneumoniae, 4.0 mcg/ml, 37° C. overnight, read-out: amount of bacterial growth inhibition (first figure)
  inhibition at 4 µg/mL: 87%
Klebsiella Pneumonia; Klebsiella pneumoniae, 40 mcg/ml, 37° C. overnight, read-out: amount of bacterial growth inhibition (first figure)
  inhibition at 40 µg/mL: 85%
Klebsiella Pneumonia; Klebsiella pneumoniae, 400 mcg/ml, 37° C. overnight, read-out: amount of bacterial growth inhibition (first figure)
  inhibition at 400 µg/mL: 75%
Listeria Sp.; 0.4 mcg/ml
  optical density at 660 nm (figure in parentheses): 0.13
Listeria Sp.; 4.0 mcg/ml
  optical density at 660 nm (figure in parentheses): 0.03
Listeria Sp.; 40 mcg/ml
  optical density at 660 nm (figure in parentheses): 0.018
Listeria Sp.; 400 mcg/ml
  optical density at 660 nm (figure in parentheses): 0.018
Listeria Sp.; Listeria, 0.04 mcg/ml, 37° C. overnight, read-out: amount of bacterial growth inhibition (first figure)
  inhibition at 0.04 µg/mL: 85%
Listeria Sp.; Listeria, 0.4 mcg/ml, 37° C. overnight, read-out: amount of bacterial growth inhibition (first figure)
  inhibition at 0.4 µg/mL: 95%
Listeria Sp.; Listeria, 4.0 mcg/ml, 37° C. overnight, read-out: amount of bacterial growth inhibition (first figure)
  inhibition at 4 µg/mL: 93%
Listeria Sp.; Listeria, 40 mcg/ml, 37° C. overnight, read-out: amount of bacterial growth inhibition (first figure)
  inhibition at 40 µg/mL: 96%
Listeria Sp.; Listeria, 400 mcg/ml, 37° C. overnight, read-out: amount of bacterial growth inhibition (first figure)
  inhibition at 400 µg/mL: 96%
Pseudomonas Sp.; 0.04 mcg/ml
  optical density at 660 nm (figure in parentheses): 0.11
Pseudomonas Sp.; 0.4 mcg/ml
  optical density at 660 nm (figure in parentheses): 0.11
Pseudomonas Sp.; 4.0 mcg/ml
  optical density at 660 nm (figure in parentheses): 0.11
Pseudomonas Sp.; 40 mcg/ml
  optical density at 660 nm (figure in parentheses): 0.14
Pseudomonas Sp.; 400 mcg/ml
  optical density at 660 nm (figure in parentheses): 0.15
Pseudomonas Sp.; Pseudomonas, 0.04 mcg/ml, 37° C. overnight, read-out: amount of bacterial growth inhibition (first figure)
  inhibition at 0.04 µg/mL: 78%
Pseudomonas Sp.; Pseudomonas, 0.4 mcg/ml, 37° C. overnight, read-out: amount of bacterial growth inhibition (first figure)
  inhibition at 0.4 µg/mL: 78%
Pseudomonas Sp.; Pseudomonas, 4.0 mcg/ml, 37° C. overnight, read-out: amount of bacterial growth inhibition (first figure)
  inhibition at 4 µg/mL: 78%
Pseudomonas Sp.; Pseudomonas, 40 mcg/ml, 37° C. overnight, read-out: amount of bacterial growth inhibition (first figure)
  inhibition at 40 µg/mL: 72%
Pseudomonas Sp.; Pseudomonas, 400 mcg/ml, 37° C. overnight, read-out: amount of bacterial growth inhibition (first figure)
  inhibition at 400 µg/mL: 71%
Staphylococcus Sp.; 0.04 mcg/ml
  optical density at 660 nm (figure in parentheses): 0.52
Staphylococcus Sp.; 0.4 mcg/ml
  optical density at 660 nm (figure in parentheses): 0.03
Staphylococcus Sp.; 4.0 mcg/ml
  optical density at 660 nm (figure in parentheses): 0.03
Staphylococcus Sp.; 40 mcg/ml
  optical density at 660 nm (figure in parentheses): 0.041
Staphylococcus Sp.; 400 mcg/ml
  optical density at 660 nm (figure in parentheses): 0.046
Staphylococcus Sp.; Staphylococcus, 0.04 mcg/ml, 37° C. overnight, read-out: amount of bacterial growth inhibition (first figure)
  inhibition at 0.04 µg/mL: 30%
Staphylococcus Sp.; Staphylococcus, 0.4 mcg/ml, 37° C. overnight, read-out: amount of bacterial growth inhibition (first figure)
  inhibition at 0.4 µg/mL: 93%
Staphylococcus Sp.; Staphylococcus, 4.0 mcg/ml, 37° C. overnight, read-out: amount of bacterial growth inhibition (first figure)
  inhibition at 4 µg/mL: 93%
Staphylococcus Sp.; Staphylococcus, 40 mcg/ml, 37° C. overnight, read-out: amount of bacterial growth inhibition (first figure)
  inhibition at 40 µg/mL: 91%
Staphylococcus Sp.; Staphylococcus, 400 mcg/ml, 37° C. overnight, read-out: amount of bacterial growth inhibition (first figure)
  inhibition at 400 µg/mL: 90%
W3100 (E. coli); 0.04 mcg/ml
  optical density at 660 nm (figure in parentheses): 0.13
W3100 (E. coli); 0.4 mcg/ml
  optical density at 660 nm (figure in parentheses): 0.051
W3100 (E. coli); 4.0 mcg/ml
  optical density at 660 nm (figure in parentheses): 0.06
W3100 (E. coli); [3]
  inhibition at 0.04 µg/mL: 74%
W3100 (E. coli); [4]
  inhibition at 0.4 µg/mL: 89%
W3100 (E. coli); [5]
  inhibition at 4 µg/mL: 88%
W3100 (E. coli); [6]
  inhibition at 40 µg/mL: 80%
W3100 (E. coli); [7]
  inhibition at 400 µg/mL: 80%
WP2s (E. coli); 0.04 mcg/ml
  optical density at 660 nm (figure in parentheses): 0.16
WP2s (E. coli); [3]
  inhibition at 0.04 µg/mL: 70%
WP2s (E. coli); [4]
  inhibition at 0.4 µg/mL: 86%
WP2s (E. coli); [5]
  inhibition at 4 µg/mL: 84%
WP2s (E. coli); [6]
  inhibition at 40 µg/mL: 85%
WP2s (E. coli); [7]
  inhibition at 400 µg/mL: 85%
P388 leukemia
  % ILS: 84%
  Mean Survival: 21 days
Ehrlich ascites; 4 mg/kg i.p.
  mice alive on Day 30: 50%
Ehrlich ascites; single approximate LD10 dose i.p. (M-TAG 250 mg/kg; mitomycin C 4 mg/kg), one day after implantation
  % ILS: 82%
[1]; 4 mg/kg i.p.
  WBC nadir, % of the control: 76%
[1]; LD10-range dose i.p., days 3, 4, 5, 6 and 10
  WBC depression / myelotoxicity (in words): significantly greater than that produced by an equitoxic dose of M-TAG (P<0.01)
[1]; LD10 dose
  decrease in WBC counts: 24%
In vitro
  activity at 1.5 h, 1 µM: 30%
  activity at 1.5 h, 5 µM: 21%
  activity at 1.5 h, 10 µM: < 10%
Bone marrow
  toxicity in animals (in words): severe bone marrow depression and gastrointestinal damage, and were delayed in onset
B16 melanoma
  mice alive on day 20: 5 out of 10
B16 melanoma; all vehicle-control mice died
  mice alive on day 10: All
[2]; single i.p. dose
  approximate LD10 dose (molar): ~12 µmol/kg
[2]; single i.p. dose toxic to 10% of normal mice
  LD10 dose: ~4 mg/kg
